PMC9586930, “Molecular insights into the distinct signaling duration for the peptide-induced PTH1R activation” (Nature Communications, 2022)
Non-standard residues stand in square brackets, D forms with d. Residues, ends and D or L forms follow the SMILES beside them. No end group written: not given here. Aib = CC(C)(N)C(=O)O

Target: T1, WT PTH1R (Homo sapiens, UniProt Q03431)
T1 construct: a flag-tag was fused to the N terminal of full-length PTH1R (WT or mutant); expressed in transfected cells; host or cells: HEK293T
T1 sequence (Q03431 27-593): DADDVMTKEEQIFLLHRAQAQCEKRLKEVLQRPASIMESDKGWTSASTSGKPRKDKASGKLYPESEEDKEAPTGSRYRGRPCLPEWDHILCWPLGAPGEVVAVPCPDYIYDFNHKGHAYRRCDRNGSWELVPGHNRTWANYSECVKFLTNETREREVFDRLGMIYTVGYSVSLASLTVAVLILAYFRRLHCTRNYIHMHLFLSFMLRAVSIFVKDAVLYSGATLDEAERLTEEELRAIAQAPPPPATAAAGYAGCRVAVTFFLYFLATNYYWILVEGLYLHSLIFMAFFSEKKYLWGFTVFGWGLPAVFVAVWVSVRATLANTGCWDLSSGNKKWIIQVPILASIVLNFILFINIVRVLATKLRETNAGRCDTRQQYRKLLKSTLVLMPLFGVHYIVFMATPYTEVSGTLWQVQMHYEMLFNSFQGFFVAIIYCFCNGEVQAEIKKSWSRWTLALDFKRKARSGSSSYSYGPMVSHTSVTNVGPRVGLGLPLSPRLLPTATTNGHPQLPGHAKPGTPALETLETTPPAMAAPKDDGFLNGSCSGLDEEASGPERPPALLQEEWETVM
Assay: cAMP accumulation assay (GloSensor), wild-type PTH1R
Format: cell-based
Conditions: HEK293T cells; for Emax: from curve fitting dose-response data; for EC50: half-maximal stimulatory concentration from curve fitting dose-response data
Description: Human embryonic kidney 293 T (HEK293T, ATCC: CRL-1573) cells were transfected with a plasmid mixture consisting of pcDNA3.1-flag-PTH1R (WT or mutants) and the cAMP biosensor GloSensor-22F (Promega) at a ratio of 2:1 (see Supplementary Table 7 for a list of primers used in this study). After 24 h, transfected cells were plated onto a 384-well plate, which was treated with cell adherent reagent (Applygen) in advance. After another 12 h, cells were treated with Hank’s balanced salt solution for starvation and then incubated in CO2-independent media containing 4% GloSensor cAMP Reagent (Promega) at a volume of 5 μl per well and incubated for 20 min at RT before measurements for baseline luminescence (Spark Multimode microplate reader, TECAN). Next, test ligands were added at different concentrations from 10^−6 to 10^−13 M before second measurement. Finally, data were normalized to 100% of the maximal PTH (1-34) response for WT PTH1R using a sigmoidal dose-response in GraphPad Prism.
Statistical analyses were performed on at least three individual datasets and analysed using GraphPad Prism software. Bars represent differences in the calculated agonist potency (pEC50) and maximum agonist response (Emax) for each mutant relative to the WT receptor. Data are mean± s.e.m. from at least three independent experiments, performed in triplicates. ns, not significant, ^nsP > 0.01; ^*P < 0.01; ^**P < 0.001; ^***P < 0.0001 (one-way analysis of variance (ANOVA) followed by Dunnett’s test, compared with the response of the WT). For dose-response experiments, data were normalized and analyzed using nonlinear curve fitting for the log (agonist) versus response (three parameters) curves.

| Compound | Emax | EC50 |
| --- | --- | --- |
| CC[C@H](C)[C@H](NC(=O)[C@H](CO)NC(=O)[C@H](CCCCN)NC(=O)CNC(=O)[C@H](CCCCN)NC(=O)[C@H](CC(=O)O)NC(=O)[C@H](Cc1c[nH]cn1)NC(=O)[C@H](CC(C)C)NC(=O)[C@H](CC(C)C)NC(=O)[C@H](CCC(N)=O)NC(=O)[C@@H](NC(=O)[C@H](CCC(=O)O)NC(=O)[C@H](CO)NC(=O)[C@@H](NC(=O)[C@H](C)N)C(C)C)[C@@H](C)CC)C(=O)N[C@@H](CCC(N)=O)C(=O)N[C@@H](CC(=O)O)C(=O)N[C@@H](CC(C)C)C(=O)N[C@@H](CCCNC(=N)N)C(=O)N[C@@H](CCCNC(=N)N)C(=O)N[C@@H](CCCNC(=N)N)C(=O)N[C@@H](CCC(=O)O)C(=O)N[C@@H](CC(C)C)C(=O)N[C@@H](CC(C)C)C(=O)N[C@@H](CCC(=O)O)C(=O)N[C@@H](CCCCN)C(=O)N[C@@H](CC(C)C)C(=O)N[C@@H](CC(C)C)C(=O)NC(C)(C)C(=O)N[C@@H](CCCCN)C(=O)N[C@@H](CC(C)C)C(=O)N[C@@H](Cc1c[nH]cn1)C(=O)N[C@H](C(=O)N[C@@H](C)C(N)=O)[C@@H](C)O [ABL(H5I)] (H-AVSEIQLLHDKGKSIQDLRRRELLEKLL[Aib]KLHTA-NH2) | 104.1 luminescence counts per 500ms | 0.32 nM |
| CSCC[C@H](NC(=O)[C@H](CC(C)C)NC(=O)[C@H](CCC(N)=O)NC(=O)[C@H](Cc1c[nH]cn1)NC(=O)[C@H](CCC(=O)O)NC(=O)[C@H](CO)NC(=O)[C@@H](NC(=O)[C@@H](N)CO)C(C)C)C(=O)N[C@@H](Cc1c[nH]cn1)C(=O)N[C@@H](CC(N)=O)C(=O)N[C@@H](CC(C)C)C(=O)NCC(=O)N[C@@H](CCCCN)C(=O)N[C@@H](Cc1c[nH]cn1)C(=O)N[C@@H](CC(C)C)C(=O)N[C@@H](CC(N)=O)C(=O)N[C@@H](CO)C(=O)N[C@@H](CCSC)C(=O)N[C@@H](CCC(=O)O)C(=O)N[C@@H](CCCNC(=N)N)C(=O)N[C@H](C(=O)N[C@@H](CCC(=O)O)C(=O)N[C@@H](Cc1c[nH]c2ccccc12)C(=O)N[C@@H](CC(C)C)C(=O)N[C@@H](CCCNC(=N)N)C(=O)N[C@@H](CCCCN)C(=O)N[C@@H](CCCCN)C(=O)N[C@@H](CC(C)C)C(=O)N[C@@H](CCC(N)=O)C(=O)N[C@@H](CC(=O)O)C(=O)N[C@H](C(=O)N[C@@H](Cc1c[nH]cn1)C(=O)N[C@@H](CC(N)=O)C(=O)N[C@@H](Cc1ccccc1)C(=O)O)C(C)C)C(C)C [PTH(I5H)] |  | 23.6 nM |
| AVAEHQLMHNRAKWIQDARRRAFLHKLIAEIHTAEI [LAPTH(I5H;Q10N)] | 117.7 luminescence counts per 500ms | 1.4 nM |
| AVAEHQLMHQLAKWIQDARRRAFLHKLIAEIHTAEI [LAPTH(I5H;R11L)] | 106.9 luminescence counts per 500ms | 2.08 nM |
| AVAEHQLMHQRAKHIQDARRRAFLHKLIAEIHTAEI [LAPTH(I5H;W14H)] | 117.8 luminescence counts per 500ms | 0.493 nM |
| AVAEHQLMHQRAKWIQDARRRAFLHKLIAEIHTAEI [LAPTH(I5H)] |  | 0.183 nM |
| AVAEHQLMHQRAKWIQDLRRRFFLHHLIAEIHTAEI-NH2 [LAPTH(1-14,I5H)/PTHrP(15-34)] | 142.8 luminescence counts per 500ms | 1.76 nM |
| AVAEHQLMHQRAKWLNSMERVEWLRKKLQDVHNF [LAPTH(1-14,I5H)/PTH(15-34)] | 129.6 luminescence counts per 500ms | 0.643 nM |
| AVAEHQLMHQRGKWIQDARRRAFLHKLIAEIHTAEI [LAPTH(I5H;A12G)] | 129.5 luminescence counts per 500ms | 2.08 nM |
| AVAEIQLLHQRAKWIQDARRRAFLHKLIAEIHTAEI [LAPTH(M8L)] |  | 3.45 nM |
| AVAEIQLLMHQRAKSIQDARRRAFLHKLIAEIHTAEI [LAPTH(W14H)] | 107.5 luminescence counts per 500ms |  |
| AVSEHQLMHQRAKWIQDARRRAFLHKLIAEIHTAEI [LAPTH(I5H;A3S)] | 125.3 luminescence counts per 500ms | 0.39 nM |
| SVAEHQLMHQRAKWIQDARRRAFLHKLIAEIHTAEI [LAPTH(I5H;A1S)] | 119.8 luminescence counts per 500ms | 1.84 nM |
| SVSEHQLMHNLGKHIQDARRRAFLHKLIAEIHTAEI [LA-PTH (I5H-PTH;NT)] | 102.1 luminescence counts per 500ms | 1.98 nM |
